Laboratory results published in patent US20260327191A1, “GSK3a INHIBITORS AND METHODS OF USE THEREOF” (Blueprint Medicines Corporation, priority 2023, published 2026).

Assays:
GSK3A = biological target: T1, GSK3A (Homo sapiens, UniProt P49840); experiment: NanoBRET cellular target engagement assay, Nanoluc-GSK3A in HEK293 cells; format: cell-based; settings: NanoBRET GSK3α IC50, HEK293 cells, tracer K-8, 2 hours, 37° C
T1 construct: expressed in transfected cells
Description: (§1) In the assay, HEK293 cells stably expressing either Nanoluc-GSK3A or Nanoluc-GSK3B were maintained in culture media and seeded, using a multidrop dispenser, at a density of 5×10^3 cells per well in 384-well white plates with 100 ng/ml doxycycline (Sigma) overnight.
(§2) Compound was first diluted in DMSO to generate a 9-point serial dilution then diluted to 10× final concentration in Opti-MEM™ (Gibco). After overnight incubation, cell medium was aspirated from the seeded cells using a microplate automatic washer, then 27 μL of pre-warmed Opti-MEM™ with kinase tracer (K-8) and 3 μL of Opti-MEM™ diluted DMSO or compounds were added per well. Plates were protected from light, mixed in an orbital shaker for 3 min at RT and incubated at 37° C., 5% CO2 in a humidified incubator for 2 hours. After acclimation at RT for 15 min, 15 μL of 3× complete NanoBRET™ Nano-Glo Substrate/Inhibitor (Promega) was added per well. Plates were mixed in an orbital shaker for 3 min at RT and incubated for an additional 30 min. Donor emission at 460 nm and acceptor emission at 647 nm were measured in EnVision multilabel plate reader (Perkin Elmer).

GSK3B [1] = biological target: T2, GSK3B (Homo sapiens, UniProt P49841); experiment: NanoBRET cellular target engagement assay, Nanoluc-GSK3B in HEK293 cells; format: cell-based; parameters: expressed in transfected cells; settings: NanoBRET GSK3β IC50, HEK293 cells, tracer K-8, 2 hours, 37° C
T2 sequence (P49841 whole entry): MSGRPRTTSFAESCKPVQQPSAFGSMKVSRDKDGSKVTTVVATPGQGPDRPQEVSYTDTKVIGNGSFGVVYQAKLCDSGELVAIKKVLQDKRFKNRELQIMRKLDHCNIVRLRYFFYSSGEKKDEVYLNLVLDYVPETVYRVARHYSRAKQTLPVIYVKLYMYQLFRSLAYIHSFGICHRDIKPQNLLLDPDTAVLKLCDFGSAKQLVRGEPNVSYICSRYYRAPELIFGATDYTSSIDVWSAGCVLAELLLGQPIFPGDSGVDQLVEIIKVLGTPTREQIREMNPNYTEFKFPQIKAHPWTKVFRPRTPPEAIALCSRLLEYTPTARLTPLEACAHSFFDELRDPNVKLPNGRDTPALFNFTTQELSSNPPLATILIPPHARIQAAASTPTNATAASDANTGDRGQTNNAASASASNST
Description: as §1, §2

human GSK3α = biological target: T3, human GSK3α (Homo sapiens, UniProt P49840); experiment: In vitro enzymatic activity assay, GSK3α; format: biochemical; settings: 1.0 mM ATP, 1.0 μM peptide substrate, 120 min, 25° C, read-out: Enzyme GSK3α (IC50)
T3 construct: Full length human GSK3α or GSK3B expressed as N-terminal GST fusion proteins; GST (N); purchased Carna Biosciences (Japan); host or cells: baculovirus host
T3 sequence (P49840 whole entry, the tested form may be a part): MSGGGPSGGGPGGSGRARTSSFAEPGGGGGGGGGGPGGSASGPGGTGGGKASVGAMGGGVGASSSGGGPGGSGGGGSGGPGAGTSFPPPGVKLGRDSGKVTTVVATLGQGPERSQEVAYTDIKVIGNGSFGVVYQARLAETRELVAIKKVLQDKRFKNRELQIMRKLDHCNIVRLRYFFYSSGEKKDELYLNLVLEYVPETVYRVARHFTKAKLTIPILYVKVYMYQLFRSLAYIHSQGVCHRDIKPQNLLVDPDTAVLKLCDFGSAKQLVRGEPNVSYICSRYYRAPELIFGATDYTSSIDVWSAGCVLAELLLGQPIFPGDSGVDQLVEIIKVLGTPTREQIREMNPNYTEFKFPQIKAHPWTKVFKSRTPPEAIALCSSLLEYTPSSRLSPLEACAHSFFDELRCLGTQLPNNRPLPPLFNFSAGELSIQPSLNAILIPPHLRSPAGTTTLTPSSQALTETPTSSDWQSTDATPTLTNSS
Description: (§3) Full length human GSK3α or GSK3B expressed as N-terminal GST fusion proteins in baculovirus host were purchased from Carna Biosciences (Japan). The kinase was pre-incubated with ATP (adenosine-5′-triphosphate) for 45 min, then incubated with tested compounds for another 45 min in assay buffer that contains 100 mM HEPES (N-2-hydroxyethylpiperazine-N′-2-ethanesulfonic acid), pH 7.5, 10 mM MgCl2, 1.0 mM DTT, and 0.015% Briji-35. […] Percent inhibition was plotted against compound concentration to generate 10-point dose response curve with 3-fold serial dilution starting from 10 μM. IC50 value was determined from the 4-parameter logistic curve fitting.

GSK3B [2] = biological target: T2, GSK3B; experiment: In vitro enzymatic activity assay, GSK3β; format: biochemical; parameters: Full length human GSK3α or GSK3B expressed as N-terminal GST fusion proteins; GST (N); purchased Carna Biosciences (Japan); host or cells: baculovirus host; settings: 1.0 mM ATP, 1.0 μM peptide substrate, 120 min, 25° C, read-out: Enzyme GSK3β (IC50)
Description: as §3

T1 sequence (P49840 whole entry): as the sequence (P49840 whole entry, the tested form may be a part) above

## COc1c(NC(=O)c2c(N)ncn(-c3c(Cl)cccc3Cl)c2=O)cccc1C1CCCN1 (single isomer, unassigned) [Example 169, (R)-4-amino-1-(2,6-dichlorophenyl)-N-(2-methoxy-3-(pyrrolidin-2-yl)phenyl)-6-oxo-1,6-dihydropyrimidine-5-carboxamide or (S)-4-amino-1-(2,6-dichlorophenyl)-N-(2-methoxy-3-(pyrrolidin-2-yl)phenyl)-6-oxo-1,6-dihydropyrimidine-5-carboxamide]
GSK3A
  IC50: 2 nM
GSK3B [1]
  IC50: 103 nM
Human GSK3α
  IC50: 4.2 nM
GSK3B [2]
  IC50: 105 nM

## COCc1cc(C)c(-n2cnc(N)c(C(=O)Nc3cncc(C4CNC(=O)CN4)c3)c2=O)c(C)c1 (single isomer, unassigned) [Example 160, (R)-4-amino-1-(4-(methoxymethyl)-2,6-dimethylphenyl)-6-oxo-N-(5-(5-oxopiperazin-2-yl)pyridin-3-yl)-1,6-dihydropyrimidine-5-carboxamide or (S)-4-amino-1-(4-(methoxymethyl)-2,6-dimethylphenyl)-6-oxo-N-(5-(5-oxopiperazin-2-yl)pyridin-3-yl)-1,6-dihydropyrimidine-5-carboxamide]
GSK3A
  IC50: 197 nM
GSK3B [1]
  IC50: 11300 nM
Human GSK3α
  IC50: 161 nM
GSK3B [2]
  IC50: 2320 nM

## Cc1cc(CS(C)(=O)=O)cc(C)c1-n1cnc(N)c(C(=O)Nc2cncc([C@H]3CCCCN3)c2)c1=O [Example 158, (R)-4-amino-1-(2,6-dimethyl-4-((methylsulfonyl)methyl)phenyl)-6-oxo-N-(5-(piperidin-2-yl)pyridin-3-yl)-1,6-dihydropyrimidine-5-carboxamide]
GSK3A
  IC50: 37.3 nM
GSK3B [1]
  IC50: 532 nM
Human GSK3α
  IC50: 9.3 nM
GSK3B [2]
  IC50: 355 nM

## Nc1ncn(-c2c(Cl)cc(C(F)F)cc2Cl)c(=O)c1C(=O)Nc1cccc([C@@H]2CCCN2)c1 [Example 54, (S)-4-amino-1-(2,6-dichloro-4-(difluoromethyl)phenyl)-6-oxo-N-(3-(pyrrolidin-2-yl)phenyl)-1,6-dihydropyrimidine-5-carboxamide]
GSK3A
  IC50: 5.4 nM
GSK3B [1]
  IC50: 340 nM
Human GSK3α
  IC50: 5.4 nM
GSK3B [2]
  IC50: 345 nM

## CCOc1cc(Cl)c(-n2cnc(N)c(C(=O)Nc3cncc(CNCCS(C)(=O)=O)c3)c2=O)c(Cl)c1 [Example 165, 4-amino-1-(2,6-dichloro-4-ethoxyphenyl)-N-(5-(((2-(methylsulfonyl)ethyl)amino)methyl)pyridin-3-yl)-6-oxo-1,6-dihydropyrimidine-5-carboxamide]
GSK3A
  IC50: 9.3 nM
GSK3B [1]
  IC50: 1120 nM
Human GSK3α
  IC50: 10.8 nM
GSK3B [2]
  IC50: 434 nM

## CCOc1cc(Cl)c(-n2cnc(N)c(C(=O)Nc3cncc(C(N)COC)c3)c2=O)c(Cl)c1 (single isomer, unassigned) [Example 134, (R)-4-amino-N-(5-(1-amino-2-methoxyethyl)pyridin-3-yl)-1-(2,6-dichloro-4-ethoxyphenyl)-6-oxo-1,6-dihydropyrimidine-5-carboxamide or (S)-4-amino-N-(5-(1-amino-2-methoxyethyl)pyridin-3-yl)-1-(2,6-dichloro-4-ethoxyphenyl)-6-oxo-1,6-dihydropyrimidine-5-carboxamide]
GSK3A
  IC50: 3.2 nM
GSK3B [1]
  IC50: 204 nM
Human GSK3α
  IC50: 3.4 nM
GSK3B [2]
  IC50: 212 nM

## CCOc1c(CN)cccc1NC(=O)c1c(N)ncn(-c2c(Cl)cccc2Cl)c1=O [Example 220, 4-amino-N-(3-(aminomethyl)-2-ethoxyphenyl)-1-(2,6-dichlorophenyl)-6-oxo-1,6-dihydropyrimidine-5-carboxamide]
GSK3A
  IC50: 8.1 nM
GSK3B [1]
  IC50: 259 nM
Human GSK3α
  IC50: 11.7 nM
GSK3B [2]
  IC50: 308 nM

## COC[C@](C)(N)c1cncc(NC(=O)c2c(N)ncn(-c3c(Cl)cc(OC)cc3Cl)c2=O)c1 (single isomer, unassigned) [Example 31, (R)-4-amino-N-(5-(2-amino-1-methoxypropan-2-yl)pyridin-3-yl)-1-(2,6-dichloro-4-methoxyphenyl)-6-oxo-1,6-dihydropyrimidine-5-carboxamide or (S)-4-amino-N-(5-(2-amino-1-methoxypropan-2-yl)pyridin-3-yl)-1-(2,6-dichloro-4-methoxyphenyl)-6-oxo-1,6-dihydropyrimidine-5-carboxamide]
GSK3A
  IC50: 5 nM
GSK3B [1]
  IC50: 418 nM
Human GSK3α
  IC50: 6.9 nM
GSK3B [2]
  IC50: 405 nM

## C[C@@H](N)c1cncc(NC(=O)c2c(N)ncn(-c3c(Cl)cc(OC4CC4)cc3Cl)c2=O)c1 (single isomer, unassigned) [Example 51, (R)-4-amino-N-(5-(1-aminoethyl)pyridin-3-yl)-1-(2,6-dichloro-4-cyclopropoxyphenyl)-6-oxo-1,6-dihydropyrimidine-5-carboxamide or (S)-4-amino-N-(5-(1-aminoethyl)pyridin-3-yl)-1-(2,6-dichloro-4-cyclopropoxyphenyl)-6-oxo-1,6-dihydropyrimidine-5-carboxamide]
GSK3A
  IC50: 2.2 nM
GSK3B [1]
  IC50: 124 nM
Human GSK3α
  IC50: 2.8 nM
GSK3B [2]
  IC50: 142 nM

## COc1cc(C)c(-n2cnc(N)c(C(=O)Nc3cccc([C@@H]4CCCN4)c3)c2=O)c(Cl)c1 (atropisomer, axis not shown) [Example 36, (S)-4-amino-1-((S)-2-chloro-4-methoxy-6-methylphenyl)-6-oxo-N-(3-(pyrrolidin-2-yl)phenyl)-1,6-dihydropyrimidine-5-carboxamide]
GSK3A
  IC50: 4.4 nM
GSK3B [1]
  IC50: 290 nM
Human GSK3α
  IC50: 7.3 nM
GSK3B [2]
  IC50: 302 nM

## CCOc1cc(C)c(-n2cnc(N)c(C(=O)Nc3cncc(C4CCCCCN4)c3)c2=O)c(C)c1 (single isomer, unassigned) [Example 95, (R)-4-amino-N-(5-(azepan-2-yl)pyridin-3-yl)-1-(4-ethoxy-2,6-dimethylphenyl)-6-oxo-1,6-dihydropyrimidine-5-carboxamide or (S)-4-amino-N-(5-(azepan-2-yl)pyridin-3-yl)-1-(4-ethoxy-2,6-dimethylphenyl)-6-oxo-1,6-dihydropyrimidine-5-carboxamide]
GSK3A
  IC50: 4.3 nM
GSK3B [1]
  IC50: 290 nM
Human GSK3α
  IC50: 9.8 nM
GSK3B [2]
  IC50: 465 nM

## COCc1cc(Cl)c(-n2cnc(N)c(C(=O)Nc3cncc([C@H](N)CC(F)F)c3)c2=O)c(Cl)c1 (single isomer, unassigned) [Example 70, (R)-4-amino-N-(5-(1-amino-3,3-difluoropropyl)pyridin-3-yl)-1-(2,6-dichloro-4-(methoxymethyl)phenyl)-6-oxo-1,6-dihydropyrimidine-5-carboxamide or (S)-4-amino-N-(5-(1-amino-3,3-difluoropropyl)pyridin-3-yl)-1-(2,6-dichloro-4-(methoxymethyl)phenyl)-6-oxo-1,6-dihydropyrimidine-5-carboxamide]
GSK3A
  IC50: 2.4 nM
GSK3B [1]
  IC50: 201 nM
Human GSK3α
  IC50: 2.9 nM
GSK3B [2]
  IC50: 145 nM

## CCOc1cc(Cl)c(-n2cnc(N)c(C(=O)Nc3cncc([C@@H]4CCCCN4)c3)c2=O)c(Cl)c1 [Example 133, (S)-4-amino-1-(2,6-dichloro-4-ethoxyphenyl)-6-oxo-N-(5-(piperidin-2-yl)pyridin-3-yl)-1,6-dihydropyrimidine-5-carboxamide]
GSK3A
  IC50: 6.1 nM
GSK3B [1]
  IC50: 350 nM
Human GSK3α
  IC50: 9.7 nM
GSK3B [2]
  IC50: 508 nM

## CCC(N)c1cncc(NC(=O)c2c(N)ncn(-c3c(C)cc(C(F)(F)F)cc3C)c2=O)c1 (single isomer, unassigned) [Example 88, (R)-4-amino-N-(5-(1-aminopropyl)pyridin-3-yl)-1-(2,6-dimethyl-4-(trifluoromethyl)phenyl)-6-oxo-1,6-dihydropyrimidine-5-carboxamide or (S)-4-amino-N-(5-(1-aminopropyl)pyridin-3-yl)-1-(2,6-dimethyl-4-(trifluoromethyl)phenyl)-6-oxo-1,6-dihydropyrimidine-5-carboxamide]
GSK3A
  IC50: 8.1 nM
GSK3B [1]
  IC50: 454 nM
Human GSK3α
  IC50: 15.4 nM
GSK3B [2]
  IC50: 1020 nM
